Test results taken from ChEMBL document CHEMBL4411258, “Novel natural compounds from endophytic fungi with anticancer activity” (Eur J Med Chem, 2018).
Converted amounts (≈) assume the structure as drawn.

Experiments:
OVCAR-3 = assay: Cytotoxicity against human OVCAR3 cells assessed as reduction in cell viability after 72 hrs by CyQuant dye-based assay; format: functional; settings: OVCAR-3, 72 h
[1] = Antiproliferative activity against HUVEC assessed as growth inhibition; format: cell-based; settings: human, HUVEC cells
K562 = assay: Antiproliferative activity against human K562 assessed as growth inhibition; format: functional
MCF7 [2] = assay: Cytotoxicity against human MCF7 cells after 48 hrs by MTT assay; format: functional, cell-based; settings: mcf7
A549 [3] = assay: Cytotoxicity against human A549 cells after 48 hrs by MTT assay; format: functional, cell-based
SMMC-7721 [4] = assay: Cytotoxicity against human SMMC7721 cells after 48 hrs by MTT assay; format: functional, cell-based
MOLT-3 = assay: Cytotoxicity against human MOLT3 cells by XTT assay; format: functional, cell-based
HL-60 [5] = assay: Cytotoxicity against human HL60 cells by XTT assay; format: functional, cell-based
[6] = Cytotoxicity against human KATO III cells after 72 hrs by MTT assay; format: functional, cell-based
NCI-H187 = assay: Cytotoxicity against human NCI-H187 cells by resazurin microplate assay; format: functional, cell-based
Vero [7] = assay: Cytotoxicity against African green monkey Vero cells by resazurin microplate assay; format: cell-based; settings: Chlorocebus sabaeus
MCF7 [8] = assay: Cytotoxicity against human MCF7 cells by resazurin microplate assay; format: functional, cell-based
Bel-7402 = assay: Cytotoxicity against human Bel7402 cells after 48 hrs by MTT assay; format: functional, cell-based; settings: Bel-7402, 48 h
HeLa [9] = assay: Cytotoxicity against human HeLa cells after 48 hrs by MTT assay; format: functional, cell-based
MCF7 [10] = assay: Cytotoxicity against human MCF7 cells after 48 hrs by MTS assay; format: functional, cell-based; settings: MCF7, 48 h
HL-60 [11] = assay: Cytotoxicity against human HL60 cells after 48 hrs by MTT assay; format: functional, cell-based; settings: HL-60, 48 h
SW480 [12] = assay: Cytotoxicity against human SW480 cells after 48 hrs by MTT assay; format: functional, cell-based; settings: SW480, 48 h
RPMI-8226 = assay: Cytotoxicity against human RPMI8226 cells after 48 hrs by MTT assay; format: functional, cell-based; settings: RPMI-8226, 48 h
MCF7 [13] = assay: Cytotoxicity against human MCF7 cells by MTT assay; format: functional, cell-based
U2OS = assay: Cytotoxicity against human U2OS cells by MTT assay; format: functional, cell-based
HCT-116 = assay: Cytotoxicity against human HCT116 cells after 48 hrs by MTT assay; format: functional, cell-based; settings: HCT-116, 48 h
HepG2 [14] = assay: Cytotoxicity against human HepG2 cells after 48 hrs by MTT assay; format: functional, cell-based; settings: HepG2, 48 h
MIA PaCa-2 = assay: Cytotoxicity against human MIAPaCa2 cells after 48 hrs by MTT assay; format: functional, cell-based; settings: MIA PaCa-2, 48 h
A549 [15] = assay: Cytotoxicity against human A549 cells by MTT assay; format: functional, cell-based
HuCC-A1 = assay: Cytotoxicity against human HuCCa1 cells by MTT assay; format: functional, cell-based
Vero [16] = assay: Cytotoxicity against African green monkey Vero cells; format: cell-based; settings: Chlorocebus sabaeus
DNA topoisomerase I = DNA topoisomerase I (Bos taurus, UniProt F1MN93); assay: Inhibition of calf thymus DNA topoisomerase 1 assessed as decrease in relaxation of supercoiled pBR322 DNA after 30 mins by Genview nucleic acid staining based agarose gel electrophoresis
Chain of DNA topoisomerase I (F1MN93 whole entry): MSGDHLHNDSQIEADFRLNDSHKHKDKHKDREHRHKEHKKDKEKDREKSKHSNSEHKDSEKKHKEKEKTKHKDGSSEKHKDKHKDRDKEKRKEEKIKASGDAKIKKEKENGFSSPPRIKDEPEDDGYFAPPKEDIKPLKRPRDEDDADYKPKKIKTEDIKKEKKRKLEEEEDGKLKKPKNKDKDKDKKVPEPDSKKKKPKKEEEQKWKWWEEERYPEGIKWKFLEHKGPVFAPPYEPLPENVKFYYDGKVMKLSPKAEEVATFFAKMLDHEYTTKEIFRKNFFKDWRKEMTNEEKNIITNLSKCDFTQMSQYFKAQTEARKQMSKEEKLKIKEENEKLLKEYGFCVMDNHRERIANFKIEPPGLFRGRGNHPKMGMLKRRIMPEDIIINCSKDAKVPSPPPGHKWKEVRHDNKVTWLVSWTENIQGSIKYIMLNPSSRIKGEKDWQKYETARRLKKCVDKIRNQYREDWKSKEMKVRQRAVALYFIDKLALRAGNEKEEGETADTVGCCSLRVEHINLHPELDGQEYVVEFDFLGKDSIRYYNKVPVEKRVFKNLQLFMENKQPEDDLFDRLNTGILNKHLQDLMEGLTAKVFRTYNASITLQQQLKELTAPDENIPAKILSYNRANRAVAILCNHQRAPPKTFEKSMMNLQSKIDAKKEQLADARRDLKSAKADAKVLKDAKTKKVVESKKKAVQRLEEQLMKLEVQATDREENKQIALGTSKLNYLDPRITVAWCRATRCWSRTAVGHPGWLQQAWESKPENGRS

HL-60 [17] = assay: Cytotoxicity against human HL60 cells assessed as inhibition of cell growth at 40 uM by MTS assay; format: functional; settings: read-out: GI
A549 [18] = assay: Cytotoxicity against human A549 cells assessed as inhibition of cell growth at 40 uM by MTS assay; format: functional; settings: read-out: GI
SMMC-7721 [19] = assay: Cytotoxicity against human SMMC7721 cells assessed as inhibition of cell growth at 40 uM by MTS assay; format: functional; settings: read-out: GI
MCF7 [20] = assay: Cytotoxicity against human MCF7 cells assessed as inhibition of cell growth at 40 uM by MTS assay; format: functional; settings: read-out: GI
SW480 [21] = assay: Cytotoxicity against human SW480 cells assessed as inhibition of cell growth at 40 uM by MTS assay; format: functional; settings: read-out: GI
HepG2 [22] = assay: Cytotoxicity against human HepG2 cells by MTT assay; format: functional, cell-based
MDA-MB-231 = assay: Cytotoxicity against human MDA-MB-231 cells by MTT assay; format: functional, cell-based
HeLa [23] = assay: Cytotoxicity against human HeLa cells after 48 hrs by sulforhodamine B assay; format: functional, cell-based
[24] = Homo sapiens, A549, 48 h, read-out: IC50

CC1=CC[C@H]2C(C)(C)CCC[C@]2(C)[C@H]1C[C@@]12O[C@@H]1C(=O)C(CO)=C[C@H]2O
IC50 (OVCAR-3): 0.5 µM

O=C1c2cccc(O)c2[C@H]2C[C@@H]1c1ccc3cccc(O)c3c1O2
GI50 [1]: 98.4 µM | GI50 (K562): 85.5 µM

COc1cc(=O)oc2c1CO[C@@](C)(OC)[C@H]2C
IC50 (MCF7 [2]): 17.7 µM | IC50 (A549 [3]; a549): 17.5 µM | IC50 (SMMC-7721 [4]; smmc-7721): 35.1 µM

CC1(C)CC[C@@H](O)[C@](C)(O)[C@@]12CC=C(C=O)CC2
IC50 (MOLT-3): 165 µM | IC50 (HL-60 [5]): 159 µM

CC(=O)O[C@H]1C=CC(=O)O[C@H]1[C@H]1[C@H]2C=CC=C[C@](O)(O2)[C@H]1C
IC50 [6]: 1.95 to 40.2 µg/mL (≈ 6.37 to 131 µM) | IC50 (NCI-H187): 1.95 to 40.2 µg/mL (≈ 6.37 to 131 µM) | IC50 (Vero [7]): 1.95 to 40.2 µg/mL (≈ 6.37 to 131 µM) | IC50 (MCF7 [8]): 1.95 to 40.2 µg/mL (≈ 6.37 to 131 µM)

COC(=O)[C@]1(OC)CCC(=O)N1Nc1ccc(OC)cc1OC
IC50 (Bel-7402): 8.1 µM | IC50 (HeLa [9]): 15.5 µM

COC(=O)C1=C[C@@H](C)C[C@H]2CC[C@@H](O)[C@@]12O
IC50 (A549 [3]; [24]): 3.6 to 16.2 µM | IC50 (MCF7 [10]): 3.6 to 16.2 µM | IC50 (HL-60 [11]): 3.6 to 16.2 µM | IC50 (SMMC-7721 [4]; Homo sapiens, SMMC-7721, 48 h, read-out: IC50): 3.6 to 16.2 µM | IC50 (SW480 [12]): 3.6 to 16.2 µM | IC50 (RPMI-8226): 3.6 to 16.2 µM

Cc1cc(O)c(C(=O)c2cc(O)cc(O)c2C=O)c(O)c1
IC50 (MCF7 [13]): 16.8 µM | IC50 (U2OS): 11.6 µM

COc1c(OC)c2c(c(OC)c1-c1c[nH]c3ccccc13)O[C@@H]1Nc3ccccc3[C@]21OC
IC50 (A549 [3]; [24]): 3.5 µg/mL | IC50 (HCT-116): 6.4 µg/mL (≈ 14.4 µM) | IC50 (HepG2 [14]): 2.5 µg/mL (≈ 5.62 µM)

CCCCC/C=C1/C(=O)OC(=O)[C@@H]1C
IC50 (MIA PaCa-2): 16 µM

COCC1=C2C=C(C)OC=C2[C@H](O)[C@@](C)(O)C1=O
IC50 (A549 [15]): 46.5 µg/mL (≈ 184 µM) | IC50 (MOLT-3): 17.4 µg/mL | IC50 (HuCC-A1): 48.1 µg/mL (≈ 191 µM)

C[C@H]1C/C=C/[C@H]2[C@@H]3O[C@]3(C)[C@@H](C)[C@H]3[C@H](Cc4ccc(O)cc4)NC(=O)[C@]32OC(=O)O/C=C/[C@@](C)(O)C1=O
IC50 (Vero [16]): 1.19 µM

Cc1cc(O)c2c(c1)[C@H](O)[C@H]1C=C[C@H](O)[C@@H](O)[C@@H]1C2=O
IC50 (DNA topoisomerase I): 23 µM

C=C1[C@@H](C)[C@H]2[C@H](Cc3c[nH]c4ccccc34)NC(=O)[C@@]2(C(=O)CCC(=O)OC)[C@@H](/C=C/CC(C)/C=C(\C)C=O)[C@@H]1O (some centres undefined)
inhibition of growth at 40 µM (HL-60 [17]): 96% | inhibition of growth at 40 µM (A549 [18]): 67% | inhibition of growth at 40 µM (SMMC-7721 [19]): 51% | inhibition of growth at 40 µM (MCF7 [20]): 58% | inhibition of growth at 40 µM (SW480 [21]): 61%

COc1ccc2c(c1)N(CC=C(C)C)C(=O)[C@@]21C=C2C(=O)N3CCC[C@H]3C(=O)N2[C@H]1C=C(C)C
IC50 (HepG2 [22]): 14.1 µM | IC50 (MDA-MB-231): 35.5 µM

C/C=C/[C@@H]1[C@@H]2C[C@@H](C)CC[C@@H]2[C@](C)(O)[C@@H]2Oc3c(-c4ccc(O)cc4)c[nH]c(=O)c3C(=O)[C@@H]12
IC50 (HeLa [23]): 8.8 µM
